Where “and” joins values, the source holds several entries; their conditions need not be identical. Equal values may be shown once. Read-outs that look alike come from different tables or passages of the source.
Key:
[1] = Pharmacokinetic analyses in mouse; format: in vivo; settings: mouse, plasma; for AUC: read-out: AUC; for AUC(0-inf): read-out: AUCinf
Method: Compound concentrations in plasma aliquots were measured by quantitative HPLC-MS/MS using an internal standard. Calibration and quality control samples were prepared using blank plasma from untreated animals. Samples were precipitated with acetonitrile and injected into a HPLC system (Agilent 1200). Separation was performed by gradients of 5 mmol/L ammonium acetate pH 4.0 and acetonitrile with 0.1% formic acid on a 2.1 mm by 50 mm XBridge BEH C18 reversed-phase column with 2.5 µm particles (Waters). The HPLC was interfaced by ESI operated in positive ionisation mode to a triple quadrupole mass spectrometer (5000 or 6500+ Triple Quad System, SCIEX) operated in multiple reaction monitoring mode. Transitions were 532.4 to 432.8 m/z for BI01810284, 525.6 to 425.7 m/z for BI01802983 and 1021.6 to 624.2 m/z for BI01580883. Chromatograms were analyzed with Analyst (SCIEX) and pharmacokinetic parameters were calculated by non-compartmental analysis using BI-proprietary software.

SMARCA2 = SMARCA2 (Homo sapiens, UniProt P51531); assay: SMARCA2 IHC in NCI-H1568 xenograft tumours; format: in vivo, mouse; parameters: from tissue; host or cells: subcutaneous NCI-H1568 or A549 xenograft tumours in BomTac:NMRI-Foxn1nu mice; settings: individual tumours; for SMARCA2 (OD, normalised): background OD 0.03518 subtracted
Method: To establish subcutaneous tumours, mice were injected with 5 × 10^6 NCI-H1568 in PBS with 5% FCS or with 1 × 10^7 A549 cells in PBS with 5% FCS. Tumour diameters were measured with a caliper three times a week. The volume of each tumour (in mm^3) was calculated according to the formula [tumour volume = length × diameter^2 × π/6]. To monitor side effects of treatment, mice were inspected daily for abnormalities and body weight was determined daily after the start of treatment. Animals were sacrificed when the tumours reached a size of 1500 mm^3. Mice were randomised into treatment groups when the average tumour size reached ~210–220 mm^3. Group sizes were calculated individually for each tumour model based on tumour growth during model establishment experiments. A power analysis was performed using a sample size calculator (https://www.stat.ubc.ca/~rollin/stats/ssize/n2.html). For both models used in the study, 10 mice per group were used for each experiment. All administrations were dosed with 10 ml/kg (s.c. and oral). Control mice were dosed subcutaneously with 10% HP-β-CD in 50% Ringer solution and orally with 15% HP-β-CD, that means the control mouse treatment was corresponding to the solvent of the compounds. Compound 6 was dosed subcutaneously either in a d1-4 q3d, d6-8 q2d, d11-13 q2d treatment (Treatment 1) or a q3 or 4d treatment (Treatment 2).
Xenograft samples were fixed in 10% formaldehyde for 24 h and later moved to ethanol and embedded in paraffin. 2 µm-thick sections were cut using a microtome, then placed on glass slides ([…], silan printer slides PR-S:001), and subsequently dewaxed. SMARCA2 immunohistochemistry was carried out on the Leica BOND RX platform (Leica Biosystems) according to manufacturer’s instructions using a human-specific SMARCA2 antibody (Cell Signalling #11966 clone D9E8B RRID:AB_2797783 1:400) where the tissue underwent a heat-induced epitope retrieval for 20 min. After staining, the slides were cover-slipped with Shandon Consul-Mount glass covers, scanned using a slide scanner (3D HISTECH Ltd.). All slides were reviewed and evaluated for quality by a board-certified MD specialist in Anatomic Pathology (PC). Imaging analysis was performed using the digital pathology platform HALO (Indica Labs). A tissue-classifying algorithm was trained to selectively recognise viable tumour tissue against stroma, necrosis, and skin. The tissue classification output for each scan was reviewed and manually edited as necessary. A cell detection and scoring algorithm was trained to measure DAB optical density (OD) in the nuclei of tumour cells. A positivity threshold for DAB OD was determined by normalisation with respect to the DAB OD as calculated from bona fide negative tissue (e.g. murine stroma as background). The average, background-normalised DAB OD of tumour cell nuclei was used to quantitate SMARCA2 expression in each xenograft sample.

[2] = iv, 5 mg/kg, 5 mg/kg i.v., individual animals
[3] = iv, 5 mg/kg, 5 mg/kg i.v., NCA, individual animals
[4] = po, 30 mg/kg, 30 mg/kg p.o., individual animals
[5] = po, 30 mg/kg, 30 mg/kg p.o., NCA, individual animals

SMARCA2, sequence (P51531 whole entry): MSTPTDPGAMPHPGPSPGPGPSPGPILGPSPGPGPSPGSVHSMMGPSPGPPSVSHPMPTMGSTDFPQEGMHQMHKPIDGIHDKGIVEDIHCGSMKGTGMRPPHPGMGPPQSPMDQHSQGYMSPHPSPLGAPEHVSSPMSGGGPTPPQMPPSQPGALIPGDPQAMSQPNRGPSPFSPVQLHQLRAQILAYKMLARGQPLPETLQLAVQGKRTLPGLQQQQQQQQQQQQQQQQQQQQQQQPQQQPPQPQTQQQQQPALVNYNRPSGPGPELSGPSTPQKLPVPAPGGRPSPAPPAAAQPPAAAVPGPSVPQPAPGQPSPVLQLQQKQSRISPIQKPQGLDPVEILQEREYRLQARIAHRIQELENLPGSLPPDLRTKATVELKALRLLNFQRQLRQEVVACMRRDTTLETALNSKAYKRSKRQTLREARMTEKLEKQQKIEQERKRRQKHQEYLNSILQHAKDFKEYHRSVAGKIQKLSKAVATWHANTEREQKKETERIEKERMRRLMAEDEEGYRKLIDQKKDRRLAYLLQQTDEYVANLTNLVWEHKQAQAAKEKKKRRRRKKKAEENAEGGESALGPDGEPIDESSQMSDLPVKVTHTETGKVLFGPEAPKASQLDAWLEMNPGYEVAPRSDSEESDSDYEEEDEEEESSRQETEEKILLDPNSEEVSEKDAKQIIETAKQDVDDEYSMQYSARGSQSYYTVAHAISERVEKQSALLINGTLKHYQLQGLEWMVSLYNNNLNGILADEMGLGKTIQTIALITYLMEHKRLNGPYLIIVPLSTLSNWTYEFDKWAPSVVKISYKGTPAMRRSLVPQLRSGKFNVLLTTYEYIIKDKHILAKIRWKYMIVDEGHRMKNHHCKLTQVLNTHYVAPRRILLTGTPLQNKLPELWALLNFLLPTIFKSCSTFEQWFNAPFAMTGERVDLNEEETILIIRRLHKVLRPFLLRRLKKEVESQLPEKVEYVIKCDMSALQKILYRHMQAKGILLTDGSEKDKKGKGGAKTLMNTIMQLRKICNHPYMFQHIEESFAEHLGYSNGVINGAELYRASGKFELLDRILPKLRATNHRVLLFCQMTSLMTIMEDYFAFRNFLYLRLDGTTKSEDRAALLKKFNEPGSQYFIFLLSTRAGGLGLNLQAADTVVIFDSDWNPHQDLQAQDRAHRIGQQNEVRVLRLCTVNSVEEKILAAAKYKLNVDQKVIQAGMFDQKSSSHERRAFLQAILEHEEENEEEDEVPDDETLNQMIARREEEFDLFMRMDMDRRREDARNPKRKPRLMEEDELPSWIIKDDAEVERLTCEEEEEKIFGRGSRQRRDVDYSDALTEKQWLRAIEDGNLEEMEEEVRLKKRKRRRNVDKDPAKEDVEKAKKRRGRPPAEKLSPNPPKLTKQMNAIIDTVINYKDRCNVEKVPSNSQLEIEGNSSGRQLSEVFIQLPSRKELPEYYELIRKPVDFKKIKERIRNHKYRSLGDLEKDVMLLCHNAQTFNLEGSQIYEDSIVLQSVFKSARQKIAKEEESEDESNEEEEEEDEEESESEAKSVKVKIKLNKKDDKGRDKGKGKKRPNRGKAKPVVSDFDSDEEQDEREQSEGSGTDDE

Compound: Cc1ncsc1-c1ccc(C(CCC(C)CCN2CCC(c3ccc4c(c3)n(C3CCCC3)c3nc(=O)c5c(Br)cccc5n43)CC2)NC(=O)C2CC(O)CN2C(=O)C(NC(=O)C2(F)CC2)C(C)(C)C)cc1 (centres unmarked) [ACBI2]
- concentration at 6 h ([1]; intravenous, 5 mg/kg, 5 mg/kg i.v., time 6 h, individual animals, read-out: Concentration): 1620 nM
- concentration at 24 h ([1]; intravenous, 5 mg/kg, 5 mg/kg i.v., time 24 h, individual animals, read-out: Concentration): 85.5 nM
- AUC [1, 2]: 34.2 µM·h
- AUC(0-inf) [1, 2]: 34.7 µM·h
- concentration at 0.25 h ([1]; iv, 5 mg/kg, 5 mg/kg i.v., 0.25 h, individual animals, read-out: Plasma concentration): 6800 nM
- concentration at 1 h ([1]; iv, 5 mg/kg, 5 mg/kg i.v., 1 h, individual animals, read-out: Plasma concentration): 5130 nM
- concentration at 6 h ([1]; iv, 5 mg/kg, 5 mg/kg i.v., 6 h, individual animals, read-out: Plasma concentration): 1220 nM
- concentration at 24 h ([1]; iv, 5 mg/kg, 5 mg/kg i.v., 24 h, individual animals, read-out: Plasma concentration): 94.9 nM
- AUC [1, 3]: 34.2 µM·h
- AUC(0-inf) [1, 3]: 34.7 µM·h
- clearance ([1]; iv, 5 mg/kg, 5 mg/kg i.v., NCA, individual animals, read-out: CL): 2.25 mL/min/kg
- Vd ([1]; iv, 5 mg/kg, 5 mg/kg i.v., NCA, individual animals, read-out: Vss): 0.536 L/kg
- clearance ([1]; iv, 5 mg/kg, 5 mg/kg i.v., read-out: clearance): 2.1 mL/min/kg
- concentration at 0.333 h ([1]; oral, 30 mg/kg, 30 mg/kg p.o., time 0.333 h, individual animals, read-out: Concentration): 898 nM
- concentration at 1 h ([1]; oral, 30 mg/kg, 30 mg/kg p.o., time 1 h, individual animals, read-out: Concentration): 4310 nM
- concentration at 2 h ([1]; oral, 30 mg/kg, 30 mg/kg p.o., time 2 h, individual animals, read-out: Concentration): 4290 nM
- concentration at 6 h ([1]; oral, 30 mg/kg, 30 mg/kg p.o., time 6 h, individual animals, read-out: Concentration): 2750 nM
- concentration at 24 h ([1]; oral, 30 mg/kg, 30 mg/kg p.o., time 24 h, individual animals, read-out: Concentration): 265 nM
- bioavailability ([1]; oral, 30 mg/kg, 30 mg/kg p.o. vs 5 mg/kg i.v., read-out: F% p.o. (oral bioavailability)): 22%
- bioavailability ([1]; po, 30 mg/kg, 30 mg/kg p.o. vs 5 mg/kg i.v., individual animals, read-out: F): 21.5%
- AUC [1, 4]: 47.5 µM·h
- AUC(0-inf) [1, 4]: 49.5 µM·h
- concentration at 0.333 h ([1]; po, 30 mg/kg, 30 mg/kg p.o., 0.333 h, individual animals, read-out: Plasma concentration): 898 nM
- concentration at 1 h ([1]; po, 30 mg/kg, 30 mg/kg p.o., 1 h, individual animals, read-out: Plasma concentration): 4310 nM
- concentration at 2 h ([1]; po, 30 mg/kg, 30 mg/kg p.o., 2 h, individual animals, read-out: Plasma concentration): 4290 nM
- concentration at 6 h ([1]; po, 30 mg/kg, 30 mg/kg p.o., 6 h, individual animals, read-out: Plasma concentration): 2750 nM
- concentration at 24 h ([1]; po, 30 mg/kg, 30 mg/kg p.o., 24 h, individual animals, read-out: Plasma concentration): 265 nM
- AUC [1, 5]: 47.5 µM·h
- AUC(0-inf) [1, 5]: 49.5 µM·h
- bioavailability ([1]; po, 30 mg/kg, 30 mg/kg p.o., NCA, individual animals, read-out: F): 21.5%
- SMARCA2 (OD, normalised) (SMARCA2; 5 mg/kg, 48h): 0.2432 and 0.2157 and 0.2065 and 0.129 and 0.1815
- SMARCA2 Nuclear OD (SMARCA2; 5 mg/kg, 48h): 0.2784 and 0.2509 and 0.2416 and 0.1642 and 0.2166
- SMARCA2 (OD, normalised) (SMARCA2; 20 mg/kg, 24h): 0.05875 and 0.05583 and 0.06456 and 0.06581
- SMARCA2 Nuclear OD (SMARCA2; 20 mg/kg, 24h): 0.09393 and 0.09101 and 0.09973 and 0.101
- SMARCA2 (OD, normalised) (SMARCA2; 20 mg/kg, 48h): 0.06607 and 0.09312 and 0.06031 and 0.01981
- SMARCA2 Nuclear OD (SMARCA2; 20 mg/kg, 48h): 0.1013 and 0.1283 and 0.09549 and 0.05499
- SMARCA2 (OD, normalised) (SMARCA2; 100 mg/kg, 48h): 0.01021 and 0.00729 and 0.00935 and 0.01389 and 0.01189
- SMARCA2 Nuclear OD (SMARCA2; 100 mg/kg, 48h): 0.04539 and 0.04246 and 0.04453 and 0.04906 and 0.04706
